Measured values reported in patent publication US8268862B2, “Sirtuin modulating compounds” (Sirtris Pharmaceuticals, Inc., priority 2007, dated 2012).

Target: T1, SIRT1 (Homo sapiens, UniProt Q96EB6)
T1 sequence (Q96EB6 1-747): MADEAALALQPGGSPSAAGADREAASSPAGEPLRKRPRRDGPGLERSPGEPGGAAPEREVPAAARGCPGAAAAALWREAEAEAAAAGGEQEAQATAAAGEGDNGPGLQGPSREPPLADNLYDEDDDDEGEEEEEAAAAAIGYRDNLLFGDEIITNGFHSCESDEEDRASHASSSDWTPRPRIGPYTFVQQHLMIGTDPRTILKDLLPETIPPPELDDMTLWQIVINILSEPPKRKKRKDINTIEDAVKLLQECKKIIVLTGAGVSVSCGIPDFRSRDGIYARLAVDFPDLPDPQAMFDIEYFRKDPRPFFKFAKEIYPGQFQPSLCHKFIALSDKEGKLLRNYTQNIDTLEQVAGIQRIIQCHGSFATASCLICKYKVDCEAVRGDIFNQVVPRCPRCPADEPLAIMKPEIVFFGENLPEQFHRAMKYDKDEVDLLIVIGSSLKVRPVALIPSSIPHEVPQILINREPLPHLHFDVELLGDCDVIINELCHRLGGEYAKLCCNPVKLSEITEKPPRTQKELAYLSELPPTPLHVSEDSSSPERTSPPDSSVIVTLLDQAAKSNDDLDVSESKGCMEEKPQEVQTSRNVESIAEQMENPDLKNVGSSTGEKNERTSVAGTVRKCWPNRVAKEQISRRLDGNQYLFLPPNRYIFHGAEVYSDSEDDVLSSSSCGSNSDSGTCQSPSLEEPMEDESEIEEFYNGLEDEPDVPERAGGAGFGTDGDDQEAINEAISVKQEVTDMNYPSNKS
Test: mass spectrometry based SIRT1 deacetylation assay (activation)
Type: biochemical
Conditions: 0.5 μM peptide substrate, 120 μM βNAD+, 10 nM SIRT1, 25 min at 25° C.; for EC1.5 (concentration of test compound that results in 150% activation of SIRT1): NA = not active in the assay; for Emax: read-out: % FOLD ACT. (percent maximum fold activation of SIRT1)
Text: A mass spectrometry based assay was used to identify modulators of SIRT1 activity. The mass spectrometry based assay utilizes a peptide having 20 amino acid residues as follows: Ac-EE-K(biotin)-GQSTSSHSK(Ac)NleSTEG-K(5TMR)-EE-NH2 (SEQ ID NO: 1) wherein K(Ac) is an acetylated lysine residue and Nle is a norleucine. The peptide is labeled with the fluorophore 5TMR (excitation 540 nm/emission 580 nm) at the C-terminus. The sequence of the peptide substrate is based on p53 with several modifications. In addition, the methionine residue naturally present in the sequence was replaced with the norleucine because the methionine may be susceptible to oxidation during synthesis and purification.
Test compounds may be added to the reaction as described above. […] After the 25 minute incubation with SIRT1, 10 μL of 10% formic acid is added to stop the reaction. Reactions are sealed and frozen for later mass spec analysis. Determination of the mass of the substrate peptide allows for precise determination of the degree of acetylation (i.e. starting material) as compared to deacetylated peptide (product).
A control for inhibition of sirtuin activity is conducted by adding 1 μL of 500 mM nicotinamide as a negative control at the start of the reaction (e.g., permits determination of maximum sirtuin inhibition). A control for activation of sirtuin activity is conducted using 10 nM of sirtuin protein, with 1 μL of DMSO in place of compound, to determine the amount of deacetylation of the substrate at a given timepoint within the linear range of the assay. This timepoint is the same as that used for test compounds and, within the linear range, the endpoint represents a change in velocity.
For the above assay, SIRT1 protein was expressed and purified as follows. […] The protein was expressed by induction with 1 mM IPTG as an N-terminal His-tag fusion protein at 18° C. overnight and harvested at 30,000×g. Cells were lysed with lysozyme in lysis buffer (50 mM Tris-HCl, 2 mM Tris[2-carboxyethyl]phosphine (TCEP), 10 μM ZnCl2, 200 mM NaCl) and further treated with sonication for 10 min for complete lysis. The protein was purified over a Ni-NTA column (Amersham) and fractions containing pure protein were pooled, concentrated and run over a sizing column (Sephadex S200 26/60 global). The peak containing soluble protein was collected and run on an Ion-exchange column (MonoQ). Gradient elution (200 mM-500 mM NaCl) yielded pure protein. This protein was concentrated and dialyzed against dialysis buffer (20 mM Tris-HCl, 2 mM TCEP) overnight. The protein was aliquoted and frozen at −80° C. until further use.
Sirtuin modulating compounds that activated SIRT1 were identified using the assay described above and are shown below in Table 3. The EC1.5 values represent the concentration of test compounds that result in 150% activation of SIRT1. NT means that the compound was not tested using the indicated assay. NA means that the compound was not active in the indicated assay.

| Compound | EC1.5 (concentration of test compound that results in 150% activation of SIRT1) [NM] | Emax [%] |
| --- | --- | --- |
| O=C(Nc1ccccc1-c1nc2cc(CN3CC[C@@H](O)C3)cnc2s1)c1ccc2ccccc2n1 [Compound 104] | 200 | 221 |
| COCCN1CCN(Cc2cnc3sc(-c4ccccc4NC(=O)c4ccnc(-c5ccccc5)c4)nc3c2)CC1 [Compound 56] | 458 | 389 |
| O=C1CN(Cc2cnc3sc(-c4ccccc4NC(=O)c4ccc5ccccc5n4)nc3c2)CCN1 [Compound 103] | 230 | 273 |
| [2H]c1c([2H])c([2H])c(-c2cccc(C(=O)Nc3ccccc3-c3nc4cc(CN5CCCC5)cnc4s3)c2)c([2H])c1[2H] [Compound 147] | 845 | 224 |
| O=C(Nc1ccccc1-c1nc2cc(CN3CC[C@@H](F)C3)cnc2s1)c1cccc(-n2cccn2)c1 [Compound 43] | 215 | 236 |
| O=C(Nc1ccccc1-c1nc2cc(CN3CC[C@@H](F)C3)cnc2s1)c1cccc(-c2ccccc2)c1 [Compound 25] | 469 | 203 |
| O=C(Nc1ccccc1-c1nc2cc(CN3CCOCC3)cnc2s1)c1cccc(-c2cccc(F)c2)c1 [Compound 49] | 319 | 192 |
| O=C(Nc1ccccc1-c1nc2cc(CN3CCOCC3)cnc2s1)c1cccc(-c2ccccc2F)c1 [Compound 48] | 395 | 222 |
| COCCN1CCN(Cc2cnc3sc(-c4ccccc4NC(=O)c4cccc(-c5cccc(C(F)(F)F)c5)n4)nc3c2)CC1 [Compound 140] | 41 | 500 |
| COCCN1CCN(Cc2cnc3sc(-c4ccccc4NC(=O)c4cccc(-c5cc(F)ccc5F)n4)nc3c2)CC1 [Compound 145] | 86 | 500 |
| COCCN1CCN(Cc2cnc3sc(-c4ccccc4NC(=O)c4sc(-c5cccnc5)nc4C)nc3c2)CC1 [Compound 85] | 16700 | 182 |
| O=C(Nc1ccccc1-c1nc2cc(CN3CC[C@@H](F)C3)cnc2s1)c1cccc(-c2ncccn2)c1 [Compound 31] | 1000 | 168 |
| C[C@@H]1CN(Cc2cnc3sc(-c4ccccc4NC(=O)c4cccc(-c5ccccn5)c4)nc3c2)C[C@H](C)N1 [Compound 15] | 627 | 531 |
| COCCN1CCN(Cc2cnc3sc(-c4ccccc4NC(=O)c4cccc(-c5cccc(C#N)c5)n4)nc3c2)CC1 [Compound 148] | 40 | 500 |
| COCCN1CCN(Cc2cnc3sc(-c4ccccc4NC(=O)c4cccc(-c5ccccc5Cl)n4)nc3c2)CC1 [Compound 133] | 90 | 500 |
| O=C(Nc1ccccc1-c1nc2cc(CN3CCNCC3)cnc2s1)c1ccnc(-c2ccccc2)n1 [Compound 73] | 2970 | 183 |
| O=C(Nc1ccccc1-c1nc2cc(CN3CC[C@@H](F)C3)cnc2s1)c1cn2cc(C(F)(F)F)ccc2n1 [Compound 129] | – | 100 |
| O=C(Nc1ccccc1-c1nc2cc(CN3CCCC3)cnc2s1)c1ccc2ccccc2n1 [Compound 95] | 160 | 252 |

| Compound | EC1.5 (concentration of test compound that results in 150% activation of SIRT1) [NM] | Emax [%] |
| --- | --- | --- |
| COCCN1CCN(Cc2cnc3sc(-c4ccccc4NC(=O)c4cccc(-c5ncccn5)c4)nc3c2)CC1 [Compound 42] | 656 | 212 |
| COCCN1CCN(Cc2cnc3sc(-c4ccccc4NC(=O)c4cccc(-c5ccccc5C#N)n4)nc3c2)CC1 [Compound 143] | 2121 | 372 |
| O=C(Nc1ccccc1-c1nc2cc(CN3CCCC3)cnc2s1)c1cccc(-c2cccc(F)c2)n1 [Compound 61] | 78 | > 500 |
| COCCN1CCN(Cc2cnc3sc(-c4ccccc4NC(=O)c4cccc(-c5ccc(Cl)cc5)n4)nc3c2)CC1 [Compound 137] | 214 | 448 |
| O=C(Nc1ccccc1-c1nc2cc(CN3C[C@@H]4C[C@H]3CN4)cnc2s1)c1cccc(-c2cccnc2)c1 [Compound 29] | 462 | 378 |
| CN(C)Cc1cnc2sc(-c3ccccc3NC(=O)c3cnc4ccccc4n3)nc2c1 [Compound 92] | 2810 | 163 |
| COCCN1CCN(Cc2cnc3sc(-c4ccccc4NC(=O)c4ccn(-c5ccccc5)n4)nc3c2)CC1 [Compound 155] | 141 | 364 |
| O=C(Nc1ccccc1-c1nc2cc(Cn3ccnc3)cnc2s1)c1ccc2ccccc2n1 [Compound 94] | 150 | 182 |
| Cc1nc(-c2cccnc2)sc1C(=O)Nc1ccccc1-c1nc2cc(CNC(C)C)cnc2s1 [Compound 83] | – | 100 |
| COCCN1CCN(Cc2cnc3sc(-c4ccccc4NC(=O)c4cc(-c5ccccc5)ccn4)nc3c2)CC1 [Compound 86] | – | 137 |
| O=C(Nc1ccccc1-c1nc2cc(CN3CCCC(F)(F)C3)cnc2s1)c1ccc2ccccc2n1 [Compound 118] | – | 100 |
| O=C(Nc1ccccc1-c1nc2ccc(CN3CCNCC3)nc2s1)c1ccc2ccccc2n1 [Compound 69] | 687 | > 500 |
| O=C(Nc1ccccc1-c1nc2cc(CN3CCOCC3)cnc2s1)c1cccc(-c2ccccn2)c1 [Compound 4] | 504 | 321 |
| COCCN1CCN(Cc2cnc3sc(-c4ccccc4NC(=O)c4cccc(-c5ccc(C(F)(F)F)cc5)n4)nc3c2)CC1 [Compound 136] | 448 | 461 |
| Cc1cc(C(=O)Nc2ccccc2-c2nc3cc(CN4CCCC4)cnc3s2)nc(-c2ccccc2)n1 [Compound 135] | 759 | 274 |
| O=C(Nc1ccccc1-c1nc2cc(CN3CC[C@H](F)C3)cnc2s1)c1ccc2ccccc2n1 [Compound 100] | 1440 | 201 |
| O=C(Nc1ccccc1-c1nc2cc(CN3CCNCC3)cnc2s1)c1cc(-c2ccccc2)no1 [Compound 62] | 592 | 231 |
| O=C(Nc1ccccc1-c1nc2cc(CN3CCCC3)cnc2s1)c1cc(-c2ccccc2)n[nH]1 [Compound 153] | 829 | 226 |
